Experimental data as given in US8603513B2 (priority 2007, dated 2013).
Several values for one entry are separate records, joined by “and”; a condition that tells them apart may be missing. Identical values can stand only once. Like-named read-outs stand apart in the source and are kept apart here.

Experiments:
[1] = tested on: Staphylococcus aureus MN 8; type: cell-based
[2] = tested on: TSST-1 toxin produced by S. aureus; type: cell-based, Staphylococcus aureus MN 8
[3] = tested on: Lactobacillus iners (LMG 18916); type: cell-based
[4] = tested on: Lactobacillus crispatus (LMG 12005); type: cell-based
[5] = tested on: Lactobacillus gasseri (ATCC 9857); type: cell-based

Compound	Change in S. Aureus CFU/ml vs. control [1]	% TSST-1 Change (ug/ml) vs. control [2]	% TSST-1 Change (ug/ml/mM) vs. control [2]	further results
O=C1O[C@H]([C@@H](O)CO)C(O)=C1O [Calcium ascorbate, calcium ascorbate]	>2 log	–	–	growth of S. aureus relative to controls [1]: virtually eliminate the growth
[Ca+2].[Cl-].[Cl-] [Calcium chloride]	≦1 log	82%	2.5% and 1.1%	% TSST-1 Change (ug/ml) vs. control ([2]; 18-20 h, 37° C.): 37%
CC(O)C(=O)[O-].CC(O)C(=O)[O-].[Ca+2] (stereo not shown) [Calcium lactate]	<1 log	49% and 89% and 90%	5.6% and 1.7%	Change in L. iners vs. control [3]: <1 log; Change in L. cripatus vs. control [4]: <1 log; Change in L. gasseri vs. control [5]: <1 log
CCCCCCCCCCCCCCCCCC(=O)O [Calcium stearate, calcium stearate]	–	65% and 62%	6.6% and 0.6%	–
[Cl][Cu][Cl] [Copper chloride]	>3 log	–	–	–
[Cl][Fe][Cl] [Ferrous chloride]	>2 log	–	–	–
[Cl-].[Cl-].[Mg+2] [Magnesium chloride]	≦1 log	47%	–	–
[Cl-].[Cl-].[Zn+2] [Zinc chloride]	>2 log	–	–	–
